pIC50: −log10 of the molar value. Where a name gives a salt, the structure may show the parent alone. Bounds are passed on as bounds.

This test concerns P. Falciparum NF54. Briefly: Plasmodium falciparum in vitro assay ([3H]-hypoxanthine incorporation). As to conditions: Plasmodium falciparum, Erythrocyte, P. Falciparum NF54, erythrocytic stages in human red blood cells, 50% human serum. Format: cell-based. The method, then:
In Vitro Antimalarial Activity: Plasmodium falciparum In Vitro Assay: In vitro activity against erythrocytic stages of P. Falciparum in human red blood cells is determined using a [^3H]-hypoxanthine incorporation assay. One strain sensitive to all drugs (P. […] After 48 hours, [^3H]-hypoxanthine (0.5 μCi) is added to each well of a plate. The plates are incubated for a further 24 hours under the same conditions then harvested with a Betaplate cell harvester (Wallac) and washed with distilled water. The dried filters are inserted into a plastic foil with 10 mL of scintillation fluid and counted in a Betaplate liquid scintillation counter. IC50 values are calculated from sigmoidal inhibition curves using Microsoft Excel.
Usually pIC50 stands for −log10 of the IC50, conventionally taken in molar units. Higher therefore signals a small IC50. On to `CCN(CC)Cc1cc(CN2CCC(N(Cc3ccc(Nc4ccnc(C)c4)cc3)C(=O)/C=C/c3ccc(C(F)(F)F)cc3)CC2)ccc1O` [Example 54, (E)-N-[1-(3-Diethylaminomethyl-4-hydroxy-benzyl)-piperidin-4-yl]-N-[4-(2-methyl-pyridin-4-ylamino)-benzyl]-3-(4-trifluoromethyl-phenyl)-acrylamide], for which the pIC50 is over 8.10.

In the case of `O=C(/C=C/c1ccc(C(F)(F)F)cc1)N(Cc1ccc(Nc2cncnc2)cc1)C1CCN(C2CCCC2)CC1` [Example 91, (E)-N-(1-Cyclopentyl-piperidin-4-yl)-N-[4-(pyrimidin-5-ylamino)-benzyl]-3-(4-trifluoromethyl-phenyl)-acrylamide], the pIC50 is 6.54. Molecule `CN(c1ccncc1)c1ccc(CN(C(=O)/C=C/c2ccc(OC(F)(F)F)cc2)C2CCN(Cc3ccccc3)CC2)cc1` [Example 146, (E)-N-(1-Benzyl-piperidin-4-yl)-N-[4-(methyl-pyridin-4-yl-amino)-benzyl]-3-(4-trifluoromethoxy-phenyl)-acrylamide] gave a pIC50 of 7.32.

`O=C(/C=C/c1ccc(C(F)(F)F)cc1)N(Cc1ccc(-c2ncccn2)cc1)C1CCN(C2CCCC2)CC1` [Example 203, (E)-N-(1-Cyclopentyl-piperidin-4-yl)-N-(4-pyrimidin-2-yl-benzyl)-3-(4-trifluoromethyl-phenyl)-acrylamide] had a negative-log IC50 (pIC50) of 6.40. `COc1ccc(CN2CCC(N(Cc3ccc(N(C)c4ccncc4)cc3)C(=O)/C=C/c3ccc(C(F)(F)F)cc3)CC2)cc1` [Example 13, (E)-N-[1-(4-Methoxy-benzyl)-piperidin-4-yl]-N-[4-(methyl-pyridin-4-yl-amino)-benzyl]-3-(4-trifluoromethyl-phenyl)-acrylamide]: the negative-log IC50 (pIC50) is 7.30.

`Cc1cc(N(C)c2cccc(CN(C(=O)/C=C/c3ccc(C(F)(F)F)cc3)C3CCN(C(C)C)CC3)n2)ccn1` [Example 128, (E)-N-(1-Isopropyl-piperidin-4-yl)-N-{6-[methyl-(2-methyl-pyridin-4-yl)-amino]-pyridin-2-ylmethyl}-3-(4-trifluoromethyl-phenyl)-acrylamide formate] showed a negative logarithm of the IC50 (pIC50) of 6.52. With `Cc1cc(Nc2ccc(CN(C(=O)/C=C/c3ccc(C(F)(F)F)cc3)C3CCN(Cc4ncc5ccccn45)CC3)cc2)ccn1` [Example 46, (E)-N-(1-Imidazo[1,5-a]pyridin-3-ylmethyl-piperidin-4-yl)-N-[4-(2-methyl-pyridin-4-ylamino)-benzyl]-3-(4-trifluoromethyl-phenyl)-acrylamide] the figure was 6.78; with `CC(C)N1CCC(N(Cc2cncc(N(C)c3ccncc3)c2)C(=O)/C=C/c2ccc(C(F)(F)F)cc2)CC1` [Example 133, (E)-N-(1-Isopropyl-piperidin-4-yl)-N-[5-(methyl-pyridin-4-yl-amino)-pyridin-3-ylmethyl]-3-(4-trifluoromethyl-phenyl)-acrylamide formate], 7.16; with `CN(c1ccncc1)c1ccc(CN(C(=O)/C=C/c2ccc(C(F)(F)F)cc2)C2CCN(Cc3ccn4ccnc4c3)CC2)cc1` [Example 25, (E)-N-(1-Imidazo[1,2-a]pyridin-7-ylmethyl-piperidin-4-yl)-N-[4-(methyl-pyridin-4-yl-amino)-benzyl]-3-(4-trifluoromethyl-phenyl)-acrylamide], 7.39.

The molecule `CC(C)N1CCC[C@H](N(Cc2ccc(N(C)c3ccncc3)cc2)C(=O)/C=C/c2ccc(C(F)(F)F)cc2)C1` [Example 83, (E)-N-((S)-1-Isopropyl-piperidin-3-yl)-N-[4-(methyl-pyridin-4-yl-amino)-benzyl]-3-(4-trifluoromethyl-phenyl)-acrylamide] showed a pIC50 of 6.92. The result for `Cc1cc(Nc2ccc(CN(C(=O)/C=C/c3ccc(C(F)(F)F)cc3)C3CCN(C(C)C)CC3)cc2)ccn1` [Example 186, (E)-N-(1-Isopropyl-piperidin-4-yl)-N-[4-(2-methyl-pyridin-4-ylamino)-benzyl]-3-(4-trifluoromethyl-phenyl)-acrylamide] reads 7.37.

Take `CN(c1ccncc1)c1ccc(CN(C(=O)/C=C/c2ccc(C(F)(F)F)cc2)[C@H]2CC[C@H](N(C)C)CC2)cc1` [Example 190, (±)-trans-(E)-N-(4-Dimethylamino-cyclohexyl)-N-[4-(methyl-pyridin-4-yl-amino)-benzyl]-3-(4-trifluoromethyl-phenyl)-acrylamide]: the pIC50 is 7.20.

In the case of `CN(c1ccncc1)c1ccc(CN(C(=O)/C=C/c2ccc(C(F)(F)F)cc2)C2CCN(CC(c3ccccc3)c3ccccc3)CC2)cc1` [Example 15, (E)-N-[1-(2,2-Diphenyl-ethyl)-piperidin-4-yl]-N-[4-(methyl-pyridin-4-yl-amino)-benzyl]-3-(4-trifluoromethyl-phenyl)-acrylamide], the negative logarithm of the IC50 (pIC50) is 7.39.

`COc1ccccc1/C=C/C(=O)N(Cc1ccc(N(C)c2ccncc2)cc1)C1CCN(Cc2ccccc2)CC1` [Example 151, (E)-N-(1-Benzyl-piperidin-4-yl)-3-(2-methoxy-phenyl)-N-[4-(methyl-pyridin-4-yl-amino)-benzyl]-acrylamide] showed a negative logarithm of the IC50 (pIC50) of 6.65.

Take `CN(c1ccncc1)c1ccc(CN(C(=O)/C=C/c2ccc(C(F)(F)F)cc2)C2CCN(Cc3ccccn3)CC2)cc1` [Example 22, (E)-N-[4-(Methyl-pyridin-4-yl-amino)-benzyl]-N-(1-pyridin-2-ylmethyl-piperidin-4-yl)-3-(4-trifluoromethyl-phenyl)-acrylamide]: the pIC50 was 6.75. The result for `COc1ccc2nc(C)cc(Nc3ccc(CN(C(=O)/C=C/c4ccc(C(F)(F)F)cc4)C4CCN(C5CCCC5)CC4)cc3)c2c1` [Example 100, (E)-N-(1-Cyclopentyl-piperidin-4-yl)-N-[4-(6-methoxy-2-methyl-quinolin-4-ylamino)-benzyl]-3-(4-trifluoromethyl-phenyl)-acrylamide] reads 7.68; that for `O=C(/C=C/c1ccc(C(F)(F)F)cc1)N(Cc1ccc(-c2cncnc2)cc1)C1CCN(C2CCCC2)CC1` [Example 204, (E)-N-(1-Cyclopentyl-piperidin-4-yl)-N-(4-pyrimidin-5-yl-benzyl)-3-(4-trifluoromethyl-phenyl)-acrylamide], 6.37. `CC(C)CCN1CCC[C@H](N(Cc2ccc(N(C)c3ccncc3)cc2)C(=O)/C=C/c2ccc(C(F)(F)F)cc2)C1` [Example 61, (S,E)-N-(1-isopentylpiperidin-3-yl)-N-(4-(methyl(pyridin-4-yl)amino)benzyl)-3-(4-(trifluoromethyl)phenyl)acrylamide] gave a pIC50 of 7.09. Turning to `Cc1cc(Nc2ccc(CN(C(=O)/C=C/c3ccc(C(F)(F)F)cc3)C3CCN(C4CCCC4)CC3)cc2)cc(C)n1` [Example 87, (E)-N-(1-Cyclopentyl-piperidin-4-yl)-N-[4-(2,6-dimethyl-pyridin-4-ylamino)-benzyl]-3-(4-trifluoromethyl-phenyl)-acrylamide], the negative logarithm of the IC50 (pIC50) was 7.55. The molecule `Cc1cc(Nc2ccc(CN(C(=O)/C=C/c3ccc(C(F)(F)F)cc3)C3CCN(Cc4ncn5ccccc45)CC3)cc2)ccn1` [Example 45, (E)-N-(1-Imidazo[1,5-a]pyridin-1-ylmethyl-piperidin-4-yl)-N-[4-(2-methyl-pyridin-4-ylamino)-benzyl]-3-(4-trifluoromethyl-phenyl)-acrylamide] had a pIC50 of 6.77. The result for `Cc1cc(Nc2ccc(CN(C(=O)/C=C/c3ccc(C(F)(F)F)cc3)C3CCN(Cc4cc(C)on4)CC3)cc2)ccn1` [Example 34, (E)-N-[1-(5-Methyl-isoxazol-3-ylmethyl)-piperidin-4-yl]-N-[4-(2-methyl-pyridin-4-ylamino)-benzyl]-3-(4-trifluoromethyl-phenyl)-acrylamide] reads 6.62; that for `CN(C)CCCOc1ccc(CN(C(=O)/C=C/c2ccc(C(F)(F)F)cc2)C2CCN(C3CCCC3)CC2)cc1` [Example 205, (E)-N-(1-Cyclopentyl-piperidin-4-yl)-N-[4-(3-dimethylamino-propoxy)-benzyl]-3-(4-trifluoromethyl-phenyl)-acrylamide], 7.09; that for `Cc1cc(Nc2cncc(CN(C(=O)/C=C/c3ccc(C(F)(F)F)cc3)C3CCN(C(C)C)CC3)c2)ccn1` [Example 136, (E)-N-(1-Isopropyl-piperidin-4-yl)-N-[5-(2-methyl-pyridin-4-ylamino)-pyridin-3-ylmethyl]-3-(4-trifluoromethyl-phenyl)-acrylamide formate], 7.10.

Consider `Cc1cc(Nc2ccc(CN(C(=O)/C=C/c3ccc(C(F)(F)F)cc3)C3CCN(Cc4ncccn4)CC3)cc2)ccn1` [Example 47, (E)-N-[4-(2-Methyl-pyridin-4-ylamino)-benzyl]-N-(1-pyrimidin-2-ylmethyl-piperidin-4-yl)-3-(4-trifluoromethyl-phenyl)-acrylamide], for which the pIC50 is 6.46. As to `Cc1cc(Nc2ccc(CN(C(=O)/C=C/c3ccc(C(F)(F)F)cc3)C3CCN(Cc4cccnc4)CC3)cc2)ccn1` [Example 48, (E)-N-[4-(2-Methyl-pyridin-4-ylamino)-benzyl]-N-(1-pyridin-3-ylmethyl-piperidin-4-yl)-3-(4-trifluoromethyl-phenyl)-acrylamide], the pIC50 was 7.00. The result for `CN1CCC(N2CCC(N(Cc3ccc(Nc4ccncc4)nc3)C(=O)/C=C/c3ccc(C(F)(F)F)cc3)CC2)CC1` [Example 110, (E)-N-(1′-Methyl-[1,4′]bipiperidinyl-4-yl)-N-[6-(pyridin-4-ylamino)-pyridin-3-ylmethyl]-3-(4-trifluoromethyl-phenyl)-acrylamide] reads 6.77; that for `CN1CCC(N2CCC(CN(Cc3ccc(N(C)c4ccncc4)cc3)C(=O)/C=C/c3ccc(C(F)(F)F)cc3)CC2)CC1` [Example 187, (E)-N-(1′-Methyl-[1,4′]bipiperidinyl-4-ylmethyl)-N-[4-(methyl-pyridin-4-yl-amino)-benzyl]-3-(4-trifluoromethyl-phenyl)-acrylamide], 7.80.

The record behind these values is US9637473B2, “Acrylamide derivatives as antimalarial agents” (priority 2013, dated 2017).
